Reference: US20230050846A1, “TREATMENT OF HEPATIC AND CARDIOVASCULAR DISORDERS” (LIFESEARCH, priority 2019, published 2023)

What was measured:
[1] = target: T1, ecto-F1-ATPase (HepG2 cells) (Homo sapiens, UniProt P06576); test: ecto-F1-ATPase activity: extracellular ADP content, luciferin-luciferase assay; format: cell-based; settings: HepG2, 5 min, apoA-I 10 μg/mL; effect blunted by IF1
T1 construct: host or cells: HepG2
Experimental: The human hepatocyte cell line HepG2 was obtained from the American Type Culture Collection (#HB-8065). HepG2 were cultured in Dulbecco's Modified Eagle's Medium (DMEM)—high glucose (D0822, Sigma-Aldrich) supplemented with 10% fetal bovine serum (10270098, Life technologies), 1% Penicillin-Streptomycin solution (P0781, Sigma-Aldrich). HepG2 cells were seeded on 24-well plates at 75,000 cells/well (Day 0). After 24 hours of growing, cells were serum starved for 24 h in order to synchronize cell cycles (Day 1) and then replaced additional 24 h in complete cell growth medium (Day 2). On day 3, cells were washed and equilibrated in fresh DMEM—high glucose without red phenol for 1 h (D1145, Sigma-Aldrich).
The cells were then treated 5 min with different concentration of peptide of formula (I) (0.1 to 5 μM), the peptide of formula (II) (1 μM), SCR (1 μM), SCR-K-16 (1 μM) or apoA-I (10 μg/mL) purified from human plasma.
Specific ecto-F1-ATPase activation was assessed in the presence of IF1 protein (1 μM), a natural inhibitor of F1-ATPase that interacts with the β-subunit to inhibit the ATP hydrolysis activity [5].
Supernatants were then collected and centrifuged (10,000 g, 5 min, 4° C.) and processed for ADP and ATP measurement. For ADP measurement, ADP was converted into ATP in 150 mM NaCl, 5 mM KCl, 2 mM MgCl2, pH 7.5 buffer containing 0.5 mM phosphoenolpyruvate (PEP) and pyruvate kinase (PK, 6 U per point for 15 min at 37° C.). For ATP measurement, 100 μl of sample was analyzed using the ATP bioluminescence assay kit CLS II (Roche Diagnostics). Samples were added to the ATP assay mixture and luminescence was measured in a microplate reader Infinite F500 (Tecan, Switzerland) for 1000 ms. The ATP standard curve was produced in the same medium as the samples and in the 10^−5 to 10^−10 M concentration range. The ADP concentration was then calculated as the ATP concentration following ADP conversion minus the basal ATP concentration. Data are expressed as nanomoles of ADP produced.

HepG2 cells = test: HDL endocytosis assay in hepatocytes; format: cell-based, human; settings: for effect on HDL endocytosis: 1 μM, HDL-Alexa568 50 μg/mL, 25 min, abolished by IF1 1 μM
Experimental: HepG2 cells were seeded on 96-well plates at 50,000 cells/well. HDL3 (d 1.12-1.21) were isolated from plasma of healthy human donors and referred to as HDL. HDL was fluorescently labeled with AlexaFluor®568 dye (A10238, Thermofisher Scientific) according the instructions of manufacturer. 1 h30 before the assay, the cells were serum starved for 1 h30 in order to stabilize nucleotide secretion. Cells were incubated with inhibitors (H49K, 1 μM) for 10 min before treatment with the different peptides (1 μM) or apoA-I (10 μg/ml) purified from human plasma. 5 min after peptide treatment, endocytosis was initiated by 50 μg/mL of AlexaFluor568®-labelled HDL. The same experiment was performed with a […] excess of unlabelled HDL (2.5 mg/mL) to determine the nonspecific fluorescence signal. After 25 min at 37° C., cells were then washed in serum-free DMEM and extracellular membrane-bound HDL was disassociated by incubating cells at 4° C. in serum-free DMEM for 90 min. Following washes, cells were lysate in NaOH 0.1M SDS 1% during 2 h, lysates were transferred in a black 96-wells plate and fluorescence was recorded at 568 nm (Varioscan flash). Fluorescence for each condition was substrate with the value obtained in unlabelled HDL condition, and results were expressed as the fold change as compared with the basal condition (untreated cells).

HUVEC cells = test: Endothelial nitric oxide (NO) production, DAF-FM-DA probe; format: cell-based, human; settings: apoA-I; abolished by IF1
Experimental: Nitric oxide (NO) was detected using a DAF-FM-DA probe (D2321, Sigma-Aldrich) which forms fluorescent benzotriazole when it reacts with NO. HUVEC cells (PromoCell #C-12203) were seeded in 96-well plates (10,000 cells per well) and cultured in endothelial cell basal medium 2 (PromoCell #C-22211) supplemented with GM2 supplement Mix (PromoCell #C-39211), until 80-90% confluence. The medium was then replaced with M-199 without serum for 4 h, and the cells were incubated for 45 min with DAF-FM-DA (5 μM) diluted in PBS. Cells were treated with increasing concentrations of the different peptides or apoA-I (10 μM) purified from human plasma or histamine (1 mM) as positive control. In another set of experiments, cells were incubated with inhibitors (IF1, 1 μM) for 10 min before treatment with peptides or apoA-I. The fluorescence was recorded for 30 min (λex=495 nm, λem=515 nm) with a Tecan Flash Multimode Reader (Thermo Fisher Scientific). Fluorescence for each condition was compared with the value obtained in untreated cells, and results were expressed as the fold change as compared with the basal condition (untreated cells).

human F1Fo-ATPase = target: T2, human F1Fo-ATPase (Homo sapiens, UniProt P06576); test: F1-ATPase activity assay (NADH-coupled, purified enzyme); format: biochemical; settings: 1 μM
T2 construct: Human F1Fo-ATPase was purified from HepG2 cells by immunocapture; endogenous in cells; host or cells: HepG2 cells; complex isolated by immunocapture with anti-ATP synthase antibody 12F4AD8AF8 (#ab109867, Abcam)
From the text: The mature human IF1 protein (SEQ ID NO: 5) was chemically synthesized by GenScript (Piscataway, N.J., USA) at >80% purity. The peptides derived from the mature human IF1 sequence (IF1-1-60, IF1-10-56, IF1-10-47) were produced by BachemAG (Bubendorf, Switzerland) with >90% purity.
Human F1Fo-ATPase was purified from HepG2 cells by immunocapture using mouse monoclonal anti-ATP synthase antibody (12F4AD8AF8, #ab109867, Abcam) according to manufacturer's instructions.
Measurement of F1-ATPase activity was assayed as previously described. Briefly, 10 μg of F1Fo-ATPase was prepared into 50 μL of activity assay buffer (10 mM HEPES, 150 mM NaCl, 5 mM KCl, 5 mM MgCl2, 0.5 mM phosphoenolpyruvate, 250 μM NADH, 100 μM ATP, 20 U lactate dehydrogenase, 120 U pyruvate kinase). The mixture was incubated at 37° C. for 30 min. Then the F1-ATPase activity was measured in a 96-well microplate by adding 5 μL of the mixture (1 μg of F1Fo-ATPase per point) per well to 200 μL of activity assay buffer at 37° C., and by adding 5 μL of buffer with or without peptide (1 μM each). The reduction in the absorbance of NADH was measured at 340 nm for 5 min with a Varioskan™ Flash Multimode Reader (Thermo Fisher Scientific). A slope was calculated for each well and the results expressed as a percentage of the control slope.

Substance	extracellular ADP concentration [1]	stimulation of HDL endocytosis compared to non-stimulated cells (HepG2 cells; apoA-I 10 μg/mL, abolished by IF1)	NO production by endothelial cells (HUVEC cells)	effect on HDL endocytosis (HepG2 cells)	stimulation of F1-ATPase activity (human F1Fo-ATPase)
apoA-I: Apolipoprotein A-I purified from human plasma, known F1-ATPase activator, positive control [reference compound]	increased	about 45%	stimulated	–	–
CH3CO-[SEQ ID NO: 2]-NH2 (Ac-GEAKSYAEKGEARGERGTKGEFRIFKREATD-NH2) [SCR, reference compound]	–	–	–	no effect	no effect
CH3CO-[SEQ ID NO: 2]-K-[palmitoyl]-NH2 (Ac-GEAKSYAEKGEARGERGTKGEFRIFKREATD-{K(palmitoyl)-NH2}) [SCR-K-C16, palmitoylated scramble peptide, negative control, reference compound]	–	–	–	no effect	no effect
